Laboratory results published in US20070122470A1, “New Combination Dosage Form” (priority 2005, published 2007).

What was measured:
[1] = cited from earlier work
[2] = concomitant administration for patients treated with ASA (Müller et al 1997); cited from earlier work
[3] = randomized, double-blind, placebo-controlled trial of esomeprazole 20 mg once daily for 26 weeks in patients receiving ASA; assay type: in vivo
Procedure: Patients were randomized to receive either esomeprazole 20 mg (administered as esomeprazole magnesium, i.e. Nexium® owned by AstraZeneca AB) or placebo once daily for 26 weeks. The primary outcome variable was the presence of gastric and/or duodenal ulcers at endoscopy over the 26-week period. A total of 991 patients, all receiving ASA in doses varying between 75-325 mg/day (57.1% male, mean age 69.3 years, mean acetyl salicylic acid (ASA) dose 124.0 mg/day) were included in the intent-to-treat population. The cumulative proportion of patients without either gastric or duodenal ulcer at 26 weeks was 98.2% with esomeprazole, compared with 93.8% with placebo (life table estimates, p=0.0007). The incidence of gastric ulcers was lower in patients taking esomeprazole than in those taking placebo (1.2% vs. 3.8%), as was the incidence of duodenal ulcers (0.4% and 1.6% for esomeprazole and placebo, respectively). Eight patients (1.6%) had developed an ulcer, in the esomeprazole group by 6 months, compared with 27 patients (5.4%) in the placebo group. This corresponded to a relative reduction of developing an ulcer of 70% when taking esomeprazole rather than placebo. A total of 95.6% of patients treated with esomeprazole had no esophageal lesions at week 26, compared with 81.7% of patients treated with placebo (p<0.0001).

[4] = esomeprazole 20 mg once daily, 26 weeks, patients on ASA

For `CC(=O)Oc1ccccc1C(=O)O` [ASA, acetyl salicylic acid], the “relative risk of developing an ulcer complication like bleeding from the stomach or the duodenum” value ([1]; daily dose as low as 75 mg (Weil et al BMJ 1995)) is listed as “doubles” and the “hospital admissions due to adverse drug reactions caused by ASA” value ([1]; epidemiological data from the UK (Pirmohamed et al BMJ 2004)) is listed as 18%.
In the case of `Cc1c(OCC(F)(F)F)ccnc1C[S+]([O-])c1nc2ccccc2[nH]1` (stereo not drawn) [lansoprazole], the “effect on damages on the mucosa caused by ASA” value [2] is given as “reduce damages on the mucosa caused by ASA”.
With `COc1ccc2nc([S@@+]([O-])Cc3ncc(C)c(OC)c3C)[nH]c2c1` [esomeprazole] the “resolution of investigator-assessed upper gastrointestinal symptoms” value ([3]; all symptoms, versus placebo) was “higher with esomeprazole than with placebo”, the safety and tolerability ([3]; esomeprazole 20 mg once daily for 26 weeks, patients on ASA) was “safe and well tolerated” and the “incidence of duodenal ulcers” value [3, 4] was 0.4%. The “incidence of gastric ulcers” value [3, 4] was 1.2%, the “cumulative proportion of patients without either gastric or duodenal ulcer at 26 weeks” value ([3]; esomeprazole 20 mg once daily, 26 weeks, patients ≧60 years on ASA 75-325 mg/day, life table estimates, p=0.0007 vs placebo) was 98.2% and the “patients who had developed an ulcer by 6 months” value ([3]; esomeprazole 20 mg once daily, patients on ASA, eight patients) was 1.6%. For the same molecule, the “patients with no esophageal lesions at week 26” value ([3]; esomeprazole 20 mg once daily, patients on ASA, p<0.0001 vs placebo) was 95.6%, the “relative reduction of developing an ulcer” value ([3]; esomeprazole rather than placebo, by 6 months) was 70% and the “proportion of patients without esophageal lesions at 6 months” value ([3]; patients with no lesions and those with Los Angeles grade A lesions at baseline, versus placebo) was “higher with esomeprazole than with placebo”.
